Experimental data published in patent US12023308B2, “Agents for reversing toxic proteinopathies” (THE BROAD INSTITUTE, INC., priority 2019, dated 2024).
“Also recorded” adds a separate entry of the source.

What was measured:
Nischarin = target: T1, Nischarin (Homo sapiens, UniProt Q9Y2I1); assay: Cellular thermal shift assay (CETSA) for Nischarin in P cells; type: binding; settings: 5 μM, 1 hour
T1 construct: Densitometric analysis of Nischarin abundance after treatment of P cells with BRD-4780 (5 μM, 1 hour) or DMSO; endogenous in cells; host or cells: P cells
T1 sequence (Q9Y2I1 whole entry): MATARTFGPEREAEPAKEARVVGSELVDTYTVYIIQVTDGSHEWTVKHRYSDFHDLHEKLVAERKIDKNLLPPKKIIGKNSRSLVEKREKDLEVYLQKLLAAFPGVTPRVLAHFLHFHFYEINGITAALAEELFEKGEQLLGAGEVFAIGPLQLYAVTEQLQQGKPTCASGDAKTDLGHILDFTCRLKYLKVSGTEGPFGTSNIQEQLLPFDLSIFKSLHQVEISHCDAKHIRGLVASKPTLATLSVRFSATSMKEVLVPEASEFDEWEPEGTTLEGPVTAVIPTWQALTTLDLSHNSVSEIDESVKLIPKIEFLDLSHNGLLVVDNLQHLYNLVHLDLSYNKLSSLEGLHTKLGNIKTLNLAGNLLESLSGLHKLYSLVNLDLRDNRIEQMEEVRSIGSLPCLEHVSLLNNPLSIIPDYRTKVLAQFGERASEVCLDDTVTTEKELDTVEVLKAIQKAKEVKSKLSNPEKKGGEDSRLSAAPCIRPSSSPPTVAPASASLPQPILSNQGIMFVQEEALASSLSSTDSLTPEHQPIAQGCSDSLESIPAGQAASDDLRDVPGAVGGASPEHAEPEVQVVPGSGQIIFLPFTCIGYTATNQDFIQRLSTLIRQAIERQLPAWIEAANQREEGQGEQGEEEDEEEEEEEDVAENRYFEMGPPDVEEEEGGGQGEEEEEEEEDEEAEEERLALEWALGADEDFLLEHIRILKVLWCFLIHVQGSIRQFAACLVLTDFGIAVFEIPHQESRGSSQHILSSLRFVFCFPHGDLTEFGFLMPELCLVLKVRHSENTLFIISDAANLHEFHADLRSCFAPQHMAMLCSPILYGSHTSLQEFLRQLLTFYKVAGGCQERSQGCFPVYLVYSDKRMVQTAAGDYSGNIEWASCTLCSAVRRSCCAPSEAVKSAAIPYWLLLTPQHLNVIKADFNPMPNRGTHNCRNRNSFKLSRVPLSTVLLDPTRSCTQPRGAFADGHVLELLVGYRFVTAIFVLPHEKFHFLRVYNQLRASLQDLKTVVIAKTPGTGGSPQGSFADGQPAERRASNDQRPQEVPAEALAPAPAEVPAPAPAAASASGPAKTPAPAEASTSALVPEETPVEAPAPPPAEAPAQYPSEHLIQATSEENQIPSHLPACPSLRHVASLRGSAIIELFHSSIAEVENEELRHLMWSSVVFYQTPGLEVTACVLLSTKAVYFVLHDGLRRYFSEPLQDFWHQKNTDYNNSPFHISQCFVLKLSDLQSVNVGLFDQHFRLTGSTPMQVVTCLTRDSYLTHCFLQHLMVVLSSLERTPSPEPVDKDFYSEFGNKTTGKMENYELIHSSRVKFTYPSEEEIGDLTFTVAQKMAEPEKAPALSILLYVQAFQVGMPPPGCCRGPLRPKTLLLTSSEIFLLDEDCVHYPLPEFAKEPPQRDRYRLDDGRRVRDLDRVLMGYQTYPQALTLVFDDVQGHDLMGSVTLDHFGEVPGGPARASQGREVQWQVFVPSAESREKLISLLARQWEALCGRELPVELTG
Protocol: CETSAs were performed as previously described (Jafari et al., 2014; Reinhard et al., 2015). In brief, P cells were treated in the presence or absence of BRD-4780 for 1 hr, harvested (trypsinized), washed in PBS, resuspended in PBS (containing protease inhibitors) and distributed in 0.2 ml PCR tubes (100 μl; 600,000 cells). Cells were incubated at their designated temperatures for 3 min, then at 25° C. for 3 min and lysed by the addition of 1% NP-40. Immediately thereafter, samples were snap frozen and thawed using thermal cycler set at 25° C. Samples were spun at 20′000×g for 20 min (4° C.) to remove precipitated protein and the supernatant was analyzed by Western blot to examine the TMED9/Nischarin thermal stability.

rhodopsin P23H = assay: GFP fluorescence in N cells expressing rhodopsin P23H-GFP; type: cell-based, human; settings: 5 μM, 24 hours
Protocol: N cells plated in 96-well plates were transfected with 20 ng/well of P23H mutant rhodopsin-GFP plasmid DNA using Lipofectamine 3000 (Thermo Fisher Scientific®). Eight hr post-transfection, the cells were washed and processed as described below.
For the GFP-rhodopsin experiments (FIGS. 15D and 15E), cells were identified by digital phase contrast. GFP signal was calculated only in cells expressing GFP signal above a minimal background (to identify successfully transfected cells) and the mean intensity was averaged for each well.
Detection of MUC1-fs in P cells at baseline and following secretory pathway perturbations was performed using immunoblot and IF analyses. For immunoblot experiments (FIGS. 5E and 13D), P cells were grown in 6-well plates to high confluence. For IF experiments (FIGS. 5B-5D and 13A-13C), P cells were plated in 384-well plates at 12,000 cells/well. Following 24 hr, cells were treated with 5 μM BRD-4780 or DMSO alone, or in combination with 100 nM Bafilomycin A (B1793, Sigma-Aldrich), or 200 ng/mL Brefeldin A (B7651, Sigma-Aldrich) for a maximum period of 24 hr as indicated. For TMED9 or Nischarin depletion experiments, transduced/transfected P cells were plated either in 96-well plates at 60,000 cells/well for IF (FIGS. 6C, 6D and 14B), or grown in 6-well plates to high confluence for immunoblot detection (FIGS. 6B and 14C). […]

SMILES: CC(C)[C@@H]1[C@H]2CC[C@H](C2)[C@H]1N (racemic) [BRD-4780, 2-endo-amino-3-exo-isopropylbicyclo[2.2.1]heptane]
- Nischarin thermal stability / engagement (CETSA) (Nischarin): no evidence indicative of direct engagement; also recorded: did not bind Nischarin
- GFP fluorescence of GFP-rhodopsin P23H (rhodopsin P23H): significantly decreased GFP fluorescence at 24 hours
